Laboratory results reported in US20090221642A1, “MUSCARINIC RECEPTOR AGONISTS, COMPOSITIONS, METHODS OF TREATMENT THEREOF, AND PROCESSES FOR PREPARATION THEREOF-176” (AstraZeneca AB, priority 2008, published 2009).

These compounds were tested against T1, hM1 (human Muscarinic receptor subtype 1) (Homo sapiens, UniProt P11229) (assay: Human M1 calcium mobilization FLIPR assay). Details: hM1 expressed in CHO cells, intracellular Ca2+ release, read-out: hM1 EC50.
T1 construct: expressed in transfected cells; host or cells: CHO cells (Chinese hamster ovary cells, ATCC)
T1 sequence (P11229 1-460): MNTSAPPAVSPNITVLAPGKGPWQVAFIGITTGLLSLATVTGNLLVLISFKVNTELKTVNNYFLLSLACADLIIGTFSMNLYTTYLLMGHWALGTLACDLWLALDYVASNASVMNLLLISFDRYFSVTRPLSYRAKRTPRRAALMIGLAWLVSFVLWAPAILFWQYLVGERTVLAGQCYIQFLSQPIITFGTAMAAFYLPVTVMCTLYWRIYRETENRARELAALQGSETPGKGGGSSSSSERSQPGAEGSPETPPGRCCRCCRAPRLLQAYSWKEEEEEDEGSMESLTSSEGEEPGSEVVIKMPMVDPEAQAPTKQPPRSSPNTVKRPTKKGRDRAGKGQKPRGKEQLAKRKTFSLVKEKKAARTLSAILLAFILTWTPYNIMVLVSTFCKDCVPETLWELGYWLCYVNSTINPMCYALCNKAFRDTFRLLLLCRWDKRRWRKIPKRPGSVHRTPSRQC
Assay type: cell-based
Procedure: Human M1, rat M1, human M3 and human M5 Calcium Mobilization FLIPR™ Assay
The compound activity in the present invention (EC50 or IC50) is measured using a 384 plate-based imaging assay that monitors drug induced intracellular Ca^2+ release in whole cells. Activation of hM1 (human Muscarinic receptor subtype 1, gene bank access NM_000738), rM1 (rat Muscarinic receptor subtype 1, gene bank access NM_080773), hM3 (human Muscarinic receptor subtype 3, gene bank access NM_000740NM_000740) and hM5 (human Muscarinic receptor subtype 5, gene bank access NM_0121258), receptors expressed in CHO cells (Chinese hamster ovary cells, ATCC) is quantified in a Molecular Devices FLIPR II™ instrument as an increase in fluorescent signal. Inhibition of hM3 and hM5 by compounds is determined by the decrease in fluorescent signal in response to 2 nM acetylcholine activation.
Prior to experiment, the cell culture medium is removed from the plates by inversion. […] Plates are incubated at 37° C. for 60 minutes prior to start the experiment. The incubation is terminated by washing the cells four times in assay buffer, leaving a residual 25 μl buffer per well. Cell plates are then transferred to the FLIPR, ready for compound additions.
The day of experiment, acetylcholine and compounds are diluted in assay buffer in three-fold concentration range (10 points serial dilution) for addition by FLIPR instrument. For all calcium assays, a baseline reading is taken for 10 seconds followed by the addition of 12.5 μl of compounds, resulting in a total well volume of 37.5 μl. Data is collected every second for 60 pictures and then every 6 seconds for 20 pictures prior to the addition of agonist. For hM3 and hM5, before agonist addition, a second baseline reading is taken for 10 seconds followed by the addition of 12.5 μl of agonist or buffer, producing a final volume of 50 μl. After agonist stimulation, the FLIPR continues to collect data every second for 60 pictures and then every 6 seconds for 20 pictures. The fluorescence emission is read using filter 1 (emission 510-570 nm) by the FLIPR on board CCD camera.
Calcium mobilization output data are calculated as the maximal relative fluorescence unit (RFU) minus the minimal value for both compound and agonist reading frame (except for hM1 and rM1 using only the maximal RFU). Data are analyzed using sigmoidal fits of a non-linear curve-fitting program (XLfit version 4.2.2 Excel add-in version 4.2.2 build 18 math 1Q version 2.1.2 build 18). All pEC50 and plC50 values are reported as arithmetic means ±standard error of mean of ‘n’ independent experiments.
`COC(=O)N1CCC(C)(N2CCC(N3C(=O)Cc4cc(F)ccc43)CC2)C1` (racemic) [Example 78, methyl 3-(4-(5-fluoro-2-oxoindolin-1-yl)piperidin-1-yl)-3-methylpyrrolidine-1-carboxylate] showed an EC50 of 0.0762 µM. `CCOC(=O)N1CCC(C)(N2CCC(n3c(=O)[nH]c4cc(C)ccc43)CC2)C1` (single isomer, unassigned) [Example 13, ethyl 3-methyl-3-(4-(5-methyl-2-oxo-2,3-dihydro-1H-benzo[d]imidazol-1-yl)piperidin-1-yl)pyrrolidine-1-carboxylate] showed an EC50 of 0.0701 µM. Compound `CC#CCOC(=O)N1CCC(C)(N2CCC(n3c(=O)[nH]c4ccc(C)cc43)CC2)C1` (single isomer, unassigned) [Example 18, but-2-ynyl 3-methyl-3-(4-(6-methyl-2-oxo-2,3-dihydro-1H-benzo[d]imidazol-1-yl)piperidin-1-yl)pyrrolidine-1-carboxylate] has an EC50 of 0.158 µM. Work on `CC#CCOC(=O)N1CCC(C)(N2CCC(n3c(=O)[nH]c4cc(C)ccc43)CC2)C1` (single isomer, unassigned) [Example 19, but-2-ynyl 3-methyl-3-(4-(5-methyl-2-oxo-2,3-dihydro-1H-benzo[d]imidazol-1-yl)piperidin-1-yl)pyrrolidine-1-carboxylate] yielded an EC50 of 0.324 µM. `Cc1ccc2c(c1)[nH]c(=O)n2C1CCN(C2(C)CCN(C(=O)OCCF)C2)CC1` (single isomer, unassigned) [Example 29, 2-fluoroethyl 3-methyl-3-(4-(5-methyl-2-oxo-2,3-dihydro-1H-benzo[d]imidazol-1-yl)piperidin-1-yl)pyrrolidine-1-carboxylate] gave an EC50 of 0.166 µM. In the case of `COC(=O)N1CCC(C)(N2CCC(n3c(=O)[nH]c4ccccc43)CC2)C1` (single isomer, unassigned) [Example 30, methyl 3-methyl-3-(4-(2-oxo-2,3-dihydro-1H-benzo[d]imidazol-1-yl)piperidin-1-yl)pyrrolidine-1-carboxylate], the EC50 is reported as 0.108 µM. In the case of `CC#CCOC(=O)N1CCC(C)(N2CCC(n3c(=O)[nH]c4cc(F)ccc43)CC2)C1` (single isomer, unassigned) [Example 35, but-2-ynyl 3-(4-(5-fluoro-2-oxo-2,3-dihydro-1H-benzo[d]imidazol-1-yl)piperidin-1-yl)-3-methylpyrrolidine-1-carboxylate], the EC50 is reported as 0.0569 µM. Compound `COC(=O)N1CCC(C)(N2CCC(n3c(=O)[nH]c4cc(F)ccc43)CC2)C1` (single isomer, unassigned) [Example 37, methyl 3-(4-(5-fluoro-2-oxo-2,3-dihydro-1H-benzo[d]imidazol-1-yl)piperidin-1-yl)-3-methylpyrrolidine-1-carboxylate] has an EC50 of 0.0765 µM. `CC1(N2CCC(n3c(=O)[nH]c4cc(F)ccc43)CC2)CCN(C(=O)OCCF)C1` (single isomer, unassigned) [Example 38, 2-fluoroethyl 3-(4-(5-fluoro-2-oxo-2,3-dihydro-1H-benzo[d]imidazol-1-yl)piperidin-1-yl)-3-methylpyrrolidine-1-carboxylate] showed an EC50 of 0.112 µM. In the case of `C#CCOC(=O)N1CCC(C)(N2CCC(n3c(=O)[nH]c4cc(C)ccc43)CC2)C1` (single isomer, unassigned) [Example 42, prop-2-ynyl 3-methyl-3-(4-(5-methyl-2-oxo-2,3-dihydro-1H-benzo[d]imidazol-1-yl)piperidin-1-yl)pyrrolidine-1-carboxylate], the EC50 is reported as 0.235 µM. `COC(=O)N1CCC(C)(N2CCC(n3c(=O)[nH]c4cc(C)ccc43)CC2)C1` (single isomer, unassigned) [Example 46, methyl 3-methyl-3-(4-(5-methyl-2-oxo-2,3-dihydro-1H-benzo[d]imidazol-1-yl)piperidin-1-yl)pyrrolidine-1-carboxylate] was tested, and the EC50 was 0.132 µM. For `COC(=O)N1CCC(C)(N2CCC(n3c(=O)[nH]c4ccc(F)cc43)CC2)C1` (single isomer, unassigned) [Example 51, methyl 3-(4-(6-fluoro-2-oxo-2,3-dihydro-1H-benzo[d]imidazol-1-yl)piperidin-1-yl)-3-methylpyrrolidine-1-carboxylate], the EC50 was 0.0571 µM. `CC1(N2CCC(n3c(=O)[nH]c4ccc(F)cc43)CC2)CCN(C(=O)OCCF)C1` (single isomer, unassigned) [Example 54, 2-fluoroethyl 3-(4-(6-fluoro-2-oxo-2,3-dihydro-1H-benzo[d]imidazol-1-yl)piperidin-1-yl)-3-methylpyrrolidine-1-carboxylate] showed an EC50 of 0.0928 µM. `COC(=O)N1CCC(C)(N2CCC(n3c(=O)[nH]c4cc(F)c(F)cc43)CC2)C1` (single isomer, unassigned) [Example 59, methyl 3-(4-(5,6-difluoro-2-oxo-2,3-dihydro-1H-benzo[d]imidazol-1-yl)piperidin-1-yl)-3-methylpyrrolidine-1-carboxylate] was tested, and the EC50 was 0.0776 µM. With `CC1(N2CCC(n3c(=O)[nH]c4cc(F)c(F)cc43)CC2)CCN(C(=O)OCCF)C1` (single isomer, unassigned) [Example 62, 2-fluoroethyl 3-(4-(5,6-difluoro-2-oxo-2,3-dihydro-1H-benzo[d]imidazol-1-yl)piperidin-1-yl)-3-methylpyrrolidine-1-carboxylate] the EC50 was 0.0798 µM. `CCCOC(=O)N1CCC(C)(N2CCC(n3c(=O)[nH]c4ccc(F)cc43)CC2)C1` (single isomer, unassigned) [Example 63, propyl 3-(4-(6-fluoro-2-oxo-2,3-dihydro-1H-benzo[d]imidazol-1-yl)piperidin-1-yl)-3-methylpyrrolidine-1-carboxylate] showed an EC50 of 0.344 µM. Work on `CCCOC(=O)N1CCC(C)(N2CCC(n3c(=O)[nH]c4ccc(F)cc43)CC2)C1` (single isomer, unassigned) [Example 64, propyl 3-(4-(6-fluoro-2-oxo-2,3-dihydro-1H-benzo[d]imidazol-1-yl)piperidin-1-yl)-3-methylpyrrolidine-1-carboxylate] yielded an EC50 of 0.0801 µM. `CC(C)OC(=O)N1CCC(C)(N2CCC(n3c(=O)[nH]c4ccc(F)cc43)CC2)C1` (single isomer, unassigned) [Example 65, isopropyl 3-(4-(6-fluoro-2-oxo-2,3-dihydro-1H-benzo[d]imidazol-1-yl)piperidin-1-yl)-3-methylpyrrolidine-1-carboxylate] was tested, and the EC50 was 0.104 µM. `CC(C)OC(=O)N1CCC(C)(N2CCC(n3c(=O)[nH]c4ccc(F)cc43)CC2)C1` (single isomer, unassigned) [Example 66, isopropyl 3-(4-(6-fluoro-2-oxo-2,3-dihydro-1H-benzo[d]imidazol-1-yl)piperidin-1-yl)-3-methylpyrrolidine-1-carboxylate] showed an EC50 of 0.0502 µM. Compound `COC(=O)N1CCC(C)(N2CCC(N3C(=O)Cc4ccc(F)cc43)CC2)C1` (single isomer, unassigned) [Example 77, methyl 3-(4-(6-fluoro-2-oxoindolin-1-yl)piperidin-1-yl)-3-methylpyrrolidine-1-carboxylate] has an EC50 of 0.0945 µM. `CC(C)OC(=O)N1CCC(C)(N2CCC(n3c(=O)[nH]c4ccccc43)CC2)C1` (centres unmarked) [Example 3, isopropyl 3-methyl-3-(4-(2-oxo-2,3-dihydro-1H-benzo[d]imidazol-1-yl)piperidin-1-yl)pyrrolidine-1-carboxylate] was tested, and the EC50 was 0.108 µM. `CC(C)OC(=O)N1CCC(C)(N2CCC(n3c(=O)[nH]c4cc(F)ccc43)CC2)C1` (centres unmarked) [Example 9, isopropyl 3-(4-(5-fluoro-2-oxo-2,3-dihydro-1H-benzo[d]imidazol-1-yl)piperidin-1-yl)-3-methylpyrrolidine-1-carboxylate] was tested, and the EC50 was 0.124 µM. In the case of `COC(=O)N1CCC(C)(N2CCC(N3C(=O)Cc4ccccc43)CC2)C1` (centres unmarked) [Example 71, methyl 3-methyl-3-(4-(2-oxoindolin-1-yl)piperidin-1-yl)pyrrolidine-1-carboxylate], the EC50 is reported as 0.123 µM.
